From PMC5321741, “Arylmethylamino steroids as antiparasitic agents” (Nature Communications, 2017) come the findings set out here.

The target in this assay is T1, recombinant protein hGrx1-roGFP2 (Homo sapiens, UniProt P35754).
T1 construct: made in house
In words: in vitro interaction with recombinant redox probe. It is filed as biochemical. The settings on record: 10 nM to 100 µM, 4 h and 24 h. The method, then:
(2) Chromogenic precipitating substrates following a poly-condensation (so called “polymerization”) pathway, which is tuneable by utilizing metal catalytic effects via introduction of metal chelating groups.32-33 […]
Heterologous overexpression of hGrx1-roGFP2 and in vitro measurements with the recombinant protein were carried out as described45 with minor modifications. […] The emission of hGrx1-roGFP2 (510 nm) after excitation at 405 nm and 475 nm was measured in a plate reader (Clariostar, BMG Labtech) with optimal read settings. The ratio of the fluorescence […]
signals at 405/475 nm were calculated and plotted against time and/or concentration of compound 1o or redox active compounds. […]
100 µM for 4 h and 24 h incubations. Transfection of the Pf3D7 strain with the redox sensor was carried out, and the parasites were cultured as described under constant drug pressure with 5 nM WR99210 (Jacobus Pharmaceuticals, New Jersey, USA).45,46 P. falciparum trophozoites were enriched via magnet separation.47 Parasitemia was counted by using Giemsa-stained blood smears. […] (6-8% parasitemia) were magnetically enriched (Miltenyi Biotec, Germany), counted by using the improved Neubauer hemocytometer (Brand GmbH, Germany), and returned to cell culture (at 0.5 x 10^6 trophozoites/µl) for at least 1 h to recover. […]

Turning to `COc1ccc2c(c1)CCC1C2CC[C@@]2(C)C1CC[C@H]2NCc1cc2ccccc2cc1O` (stereo partly shown) [1o], the “direct interaction with recombinant hGrx1-roGFP2” value is recorded as “No direct interaction was detected”.
